IC50 data for three compounds are collected here from publication PMC3023844 (Planta medica, 2010).

Molecules are shown by their SMILES. Where two headings read alike, the source gives them in different places.

Data set [1] addresses T1, CYP3A (intestinal) (Homo sapiens, UniProt P08684). Briefly: in vitro. The conditions noted are these: microsomes, pH 7.4, IC50, HIM as the enzyme source.
In data set [2] the target is recombinant CYP3A4 (rCYP3A4) (Homo sapiens, UniProt P08684). The data set can be described thus: IC50 of triterpenes for midazolam 1′-hydroxylation using recombinant CYP3A4.
Data set [3] deals with T1, CYP3A (intestinal). The settings on record: microsomes, pH 7.4.
The test system of a further data set is CYP3A. The conditions noted are these: read-out: IC50 or Ki values determined previously; CYP3A inhibitors in grapefruit juice; cited from earlier work.

For the compound `C[C@H]1[C@H](C)CC[C@]2(C(=O)O)CC[C@]3(C)C(=CC[C@@H]4[C@@]5(C)C[C@@H](O)[C@H](O)C(C)(C)[C@@H]5CC[C@]43C)[C@H]12` [Corosolic acid (3), 2α,3β-dihydroxyurs-12-en-28-oic acid], the IC50 at CYP3A (intestinal) [1] was found to be 8.8 ± 0.9 µM; in data set [2], 4.3 ± 0.3 µM.

With `CC1(C)CC[C@]2(C(=O)O)CC[C@]3(C)C(=CC[C@@H]4[C@@]5(C)C[C@@H](O)[C@H](O)C(C)(C)[C@@H]5CC[C@]43C)[C@@H]2C1` [Maslinic acid (2), 2α,3β-dihydroxyolean-12-en-28-oic acid], the IC50 in data set [2] amounted to 2.8 ± 0.2 µM; on CYP3A (intestinal) [3], 7.4 ± 0.5 µM.

For the compound `CC(=CCOc1c2ccoc2cc2oc(=O)ccc12)CCC(O)C(C)(C)O` (centres unmarked) [6′,7′-dihydroxybergamottin], the IC50 with CYP3A was 1 to 5 µM.
